Source: patent publication US4663340A, “Alpha-adrenoreceptor agonistic 2-[(2-cyclopropyl-5-methyl- or 2-cyclopropyl-5-chlorophenoxy)methyl]-2-imidazolines” (priority 1984, dated 1987)
“Also recorded” adds a separate entry of the source.

Tests used:
[1] = tested on: postsynaptic α1-adrenoceptor; test: Vasoconstrictor (hypertensive) dose-response in anaesthetized pithed rat, i.v.; assay type: in vivo, Wistar rat; conditions: for Relative power towards Cirazoline: Table I; for Relative power towards Cirazoline / ED50 / potency relative to Cirazoline / potency relative to Fenoxazoline: pithed rat; for ED50 (before antagonists): Table II, before administration of antagonists; for ED50: dose of base inducing 50% of maximal response
Description: (§1) (1) The vaso-constrictor properties and potency of the compounds (I) object of the present invention have been investigated and quantified in the anaesthetized pithed rat by determination of their dose-[…] response curves after intravenous administration, according to the technique described by Shipley and Tilden (Proceedings of Society of Experimental Biology, 1947, 64, pages 453-455). This technique allows assessment of the postsynaptic α-adrenoceptor agonist properties of a drug. […] For each of these drugs, log of cumulative doses-hypertensive response curves after intravenous administration have been drawn in groups of eight Wistar rats, anaesthetized, pithed, bilaterally vagotomized, atropinized and treated with d-tribocurarine. ED50 s (doses in mg/kg of the base inducing 50% of the maximal response) were then calculated for each drug and compared to those of the reference compounds.
Table I reports the values of these ED50 s. It appears from this table that compounds ND 83201 and ND 83204 are the most powerful vaso-constrictor agents, their potency being about 1.75 times that of Cirazoline and three times that of Fenoxazoline.

[2] = tested on: α1-adrenoceptor; test: Vasoconstrictor effect in pithed rat after reserpine pre-treatment (direct action); assay type: in vivo, Wistar rat; conditions: except in very high doses
Description: as §1
(a) ND 83201 is a directly acting α1 -adrenoceptor agonist.

[3] = tested on: postsynaptic α1-adrenoceptor; test: Vasoconstrictor effect in pithed rat after specific postsynaptic α1-adrenoceptor antagonist prazosine; assay type: in vivo, Wistar rat; conditions: for ED50 after prazosine: I.V.
Description: as §1
(§2) For each of the three drugs log of cumulative doses-hypertensive response curves after intravenous administration have been drawn and their ED50 s (in μg per kg) were calculated before and after administration of the antagonists in groups of 8 animals each.

[4] = tested on: postsynaptic α1-adrenoceptor; conditions: literature; cited from earlier work
[5] = tested on: postsynaptic α2-adrenoceptor; test: Vasoconstrictor effect in pithed rat after specific postsynaptic α2-adrenoceptor antagonist yohimbine; assay type: in vivo, Wistar rat; conditions: for ED50 after yohimbine: I.V.; for ED50 after yohimbine / antagonism of vasoconstrictor effect by yohimbine / ED50 after / ED50 before yohimbine: yohimbine 60 μg/kg/min./5 mins.; for antagonism of vasoconstrictor effect by yohimbine / postsynaptic α2-adrenoceptor agonist properties: in words
Description: as §1, §2

[6] = tested on: presynaptic α2-adrenoceptor; test: Presynaptic α2-adrenoceptor antagonist activity: restoration of tachycardia reduced by clonidine in pithed rat; conditions: for Heartbeat frequency under electric stimulation (supramaximal tachycardia): before clonidine and tested substance; for Heartbeat frequency under electric stimulation and after clonidine: clonidine 40 μg/kg, I.V., before tested substance; for restoration of submaximal tachycardia / presynaptic α2-adrenoceptor antagonist activity: in words, after clonidine 40 μg/kg I.V.
[7] = Solubility in water; assay type: physicochemical; conditions: hydrochloride
[8] = Stability of aqueous solution (hydrolysis of the imidazoline cycle); assay type: physicochemical; conditions: 1 per mill aqueous solution, room temperature
[9] = tested on: presynaptic α2-adrenoceptor; test: Presynaptic α2-adrenoceptor agonist activity: reduction of induced submaximal tachycardia in pithed rat; assay type: in vivo, Wistar rat; conditions: for effect on induced submaximal tachycardia / presynaptic α2-adrenoceptor agonist activity: electrically stimulated spinal cord
[10] = tested on: β-adrenoceptor; test: Vasoconstrictor ED50 after β-adrenoceptor antagonist pretreatment (β-adrenoceptor postsynaptic agonist activity); assay type: in vivo, Wistar rat; conditions: propranold 150 μg/kg/min/5 min
Description: (d) ND 83201 has no β-adrenoceptor postsynaptic agonist activity.

| SMILES | Relative power towards Cirazoline [1] | ED50 (before antagonists) [1] | ED50 [1] | effect of reserpine pre-treatment on vasoconstrictor effects [2] | ED50 after prazosine ([3]; prazosine 20 μg/kg/min./5 min.) | ED50 after / ED50 before prazosine ([3]; prazosine 20 μg/kg/min./5 min.) | ED50 after yohimbine [5] | antagonism of vasoconstrictor effect by yohimbine [5] | ED50 after / ED50 before yohimbine [5] | Heartbeat frequency under electric stimulation (supramaximal tachycardia) [6] | Heartbeat frequency under electric stimulation and after clonidine [6] | restoration of submaximal tachycardia / presynaptic α2-adrenoceptor antagonist activity [6] | effect on induced submaximal tachycardia / presynaptic α2-adrenoceptor agonist activity [9] | other results |
| --- | --- | --- | --- | --- | --- | --- | --- | --- | --- | --- | --- | --- | --- | --- |
| CC(C)c1ccccc1OCC1=NCCN1 [Fenoxazoline] | 0.62 | 1.790 ± 0.147 µg/kg | 1.790 ± 0.147 µg/kg | not, except in very high doses, modified | 16.205 ± 1.240 µg/kg | 9.05 | 1.804 ± 0.237 µg/kg | almost not antagonized by yohimbine | 1.01 |  |  |  |  | known vasoconstrictor / postsynaptic α1-adrenoceptor agonist activity [4]: postsynaptic α1 -adrenoceptor agonist |
| Cc1ccc(N(CC2=NCCN2)c2cccc(O)c2)cc1 [Phentolamine] |  |  |  |  |  |  |  |  |  | 455.6 ± 11.5 | 411.2 ± 8.9 | resores sub-maximal tachycardia |  |  |
| Clc1ccc(C2CC2)c(OCC2=NCCN2)c1 [ND 83 204, (5'-chloro-2'-cyclopropyl)-2-phenoxymethyl-Δ2-imidazoline] | 1.72 |  | 0.644 ± 0.050 µg/kg |  |  |  |  |  |  |  |  |  |  | solubility in water [7]: not very soluble in water; potency relative to Cirazoline [1]: about 1.75 times; potency relative to Fenoxazoline [1]: three; appearance of hydrolysis product (amino-amide (V)) in aqueous solution [8]: even after one month, no trace of hydrolysis is yet detectable |
| Brc1ccc(C2CC2)c(OCC2=NCCN2)c1 [ND 83 202, (5'-bromo-2'-cyclopropyl)-2-phenoxymethyl-Δ2-imidazoline] | 0.25 |  | 4.422 ± 0.329 µg/kg |  |  |  |  |  |  |  |  |  |  |  |
| c1ccc(C2CC2)c(OCC2=NCCN2)c1 [Cirazoline, (2'-cyclopropyl)-2-phenyloxymethyl-Δ2-imidazoline] | 1 | 1.105 ± 0.132 µg/kg | 1.105 ± 0.132 µg/kg | not, except in very high doses, modified | 8.568 ± 0.721 µg/kg | 7.75 | 1.180 ± 0.108 µg/kg | almost not antagonized by yohimbine | 1.05 | 452.1 ± 10.5 | 395.7 ± 14.1 | neither and no effect and no | completey devoid of any presynaptic α2 -adrenoceptor agonist activity and no | nature of agonist effect (postsynaptic α1-adrenoceptor) ([3]; in words): specific and direct postsynaptic α1 -adrenoceptor agonist effects; appearance of hydrolysis product (amino-amide (V)) in aqueous solution [8]: after a few days the appearance of the cleaving product by hydrolysis of the imidazoline cycle; known vasoconstrictor / postsynaptic α1-adrenoceptor agonist activity [4]: the most powerful and specific postsynaptic α1-adrenoceptor agonist known up to now; also recorded: powerful nasal vasoconstrictor; postsynaptic α2-adrenoceptor agonist properties [5]: no postsynaptic α2-adrenoceptor agonist |
| CCCCCc1ccc(C2CC2)c(OCC2=NCCN2)c1 [ND 83 203, (5'-n-pentyl-2'-cyclopropyl)-2-phenyloxymethyl-Δ2-imidazoline] | 0.015 |  | 74.182 ± 6.667 µg/kg |  |  |  |  |  |  |  |  |  |  |  |
| Cc1ccc(C2CC2)c(OCC2=NCCN2)c1 [ND 83201, (5'-methyl-2'-cyclopropyl)-2-phenyloxymethyl-Δ2-imidazoline] | 1.75 | 0.630 ± 0.060 µg/kg | 0.630 ± 0.060 µg/kg | not, except in very high doses, modified | 7.284 ± 0.974 µg/kg | 11.56 | 0.805 ± 0.076 µg/kg | almost not antagonized by yohimbine | 1.25 | 448.7 ± 7.7 | 391.2 ± 5.9 | no presynaptic α2 -adrenoceptor antagonist activity and no effect and no | completey devoid of any presynaptic α2 -adrenoceptor agonist activity and no | solubility in water [7]: not very soluble in water; potency relative to Cirazoline [1]: about 1.75 times; potency relative to Fenoxazoline [1]: three; nature of agonist effect (postsynaptic α1-adrenoceptor) ([3]; in words): specific and direct postsynaptic α1 -adrenoceptor agonist effects; antagonism of vasoconstrictor effect by prazosine ([3]; in words, prazosine 20 μg/kg/min./5 min.): strongly antagonized by prazosine and even slightly more than those of Cirazoline and Fenoxazoline; effect on induced submaximal tachycardia / presynaptic α2-adrenoceptor agonist activity ([9]; listed as ND 83 201): no presynaptic α2 -adrenoceptor agonist activity; ED50 change after β-adrenoceptor antagonist / β-adrenoceptor postsynaptic agonist activity [10]: not modified; postsynaptic α2-adrenoceptor agonist properties [5]: no postsynaptic α2-adrenoceptor agonist |
| Clc1cccc(Cl)c1N=C1NCCN1 [clonidine] |  |  |  |  |  |  |  |  |  |  |  |  | reduced the submaximal tachycardia | antagonism of clonidine effect by yohimbine ([9]; submaximal tachycardia): effect antagonized by yohimbine |
